Reference: patent publication US9850283B2, “Macrocyclic inhibitors of the PD-1/PD-L1 and CD80(B7-1)/PD-L1 protein/protein interactions” (BRISTOL-MYERS SQUIBB COMPANY, priority 2013, dated 2017)
Read-outs that look alike come from different tables or passages of the source. Positions of bridges follow the written chain, without caps; N, C: chain ends. Non-standard residues stand in square brackets, D forms with d. Residues, ends and D or L forms follow the SMILES beside them. Ala(indol-4-yl) = N[C@@H](Cc1cccc2[nH]ccc12)C(=O)O; Phe(F5) = N[C@@H](Cc1c(F)c(F)c(F)c(F)c1F)C(=O)O; pY = N[C@@H](Cc1ccc(OP(=O)(O)O)cc1)C(=O)O; Phe(4-Cl) = N[C@@H](Cc1ccc(Cl)cc1)C(=O)O; Phe(4-F) = N[C@@H](Cc1ccc(F)cc1)C(=O)O; Bta = N[C@@H](Cc1csc2ccccc12)C(=O)O; NMeF = CN[C@@H](Cc1ccccc1)C(=O)O; NMeE = CN[C@@H](CCC(=O)O)C(=O)O; NMeNle = CCCC[C@H](NC)C(=O)O; Sar = CNCC(=O)O

Experiments:
Human PD-L1/PD-1 = target: T1, Human PD-L1/PD-1 (Homo sapiens, UniProt Q9NZQ7); experiment: HTRF PD-1-Ig/PD-L1-His binding assay (human PD-L1); conditions: cluster symbol
T1 construct: made in house; host or cells: HEK293T
Outline: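 Soluble PD-1-Ig binding to PD-L1-His measured by HTRF in dPBS with 0.1% BSA and 0.05% Tween-20. Detection used europium cryptate anti-Ig antibody (1 nM final) and APC anti-His antibody (20 nM final) added on top of the binding reaction.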

[1] = target: T2, LK35.2-hPD-L1 cells / PE-labeled PD-1-Ig (Homo sapiens, UniProt Q9NZQ7); experiment: LK35.2-hPD-L1 cell binding high-content screening assay; assay type: cell-based; conditions: cluster symbol, cell line of CBA not given (LK35.2-hPD-L1 or 293T-hPD-L1)
T2 construct: expressed in transfected cells; host or cells: LK35.2 mouse B cell line
Outline: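 Compound effect on PD-1/PD-L1 binding is measured by imaging cell-associated phycoerythrin signal. Human PD-1-Ig (PE on Ig tag, 1 nM final) is applied with compound to a murine B cell line overexpressing human PD-L1 for 1 h at 37 °C in serum-containing RPMI.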

T1 sequence (Q9NZQ7 with tags, fused parts or gaps): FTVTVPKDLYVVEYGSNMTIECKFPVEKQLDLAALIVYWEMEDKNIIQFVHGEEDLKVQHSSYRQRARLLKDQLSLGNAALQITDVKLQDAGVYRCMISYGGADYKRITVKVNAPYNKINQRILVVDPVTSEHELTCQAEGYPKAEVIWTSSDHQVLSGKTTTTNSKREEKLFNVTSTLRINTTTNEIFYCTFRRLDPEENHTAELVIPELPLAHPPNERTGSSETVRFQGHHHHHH
T2 sequence (Q9NZQ7 19-290): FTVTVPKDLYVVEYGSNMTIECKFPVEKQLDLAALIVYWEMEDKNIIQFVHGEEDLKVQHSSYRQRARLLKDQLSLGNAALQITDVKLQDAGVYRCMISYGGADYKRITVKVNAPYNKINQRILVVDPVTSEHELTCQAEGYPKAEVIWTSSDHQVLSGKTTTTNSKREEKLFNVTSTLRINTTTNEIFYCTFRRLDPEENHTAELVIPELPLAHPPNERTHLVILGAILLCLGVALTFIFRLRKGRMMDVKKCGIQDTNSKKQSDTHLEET

Compound	IC50 (Human PD-L1/PD-1; read-out: HTRF IC50 cluster) [nM]	IC50 ([1]; read-out: CBA IC50 cluster) [nM]	IC50 (Human PD-L1/PD-1; HTRF IC50 cluster) [nM]	IC50 ([1]; CBA IC50 cluster) [nM]
CCCC[C@H]1C(=O)N(C)CC(=O)N[C@@H](CC(=O)O)C(=O)N[C@@H](C(C)C)C(=O)N(C)[C@@H](Cc2ccccc2)C(=O)N[C@@H](Cc2ccc(O)cc2)C(=O)N(C)CC(=O)N[C@@H](Cc2c[nH]c3ccccc23)C(=O)N[C@@H](Cc2ccc(O)cc2)C(=O)N[C@@H](CC(C)C)C(=O)N[C@H](C(=O)NCC(N)=O)CSCC(=O)N[C@@H](Cc2ccc(OP(=O)(O)O)cc2)C(=O)N(C)[C@@H](Cc2ccccc2)C(=O)N1C [Example 3066] ({CH2CO}-[pY][NMeF][NMeNle][Sar]DV[NMeF]Y[Sar]WYLCG-NH2; thioether N-13)			> 30.5	> 74.3
CCCC[C@H]1C(=O)N(C)CC(=O)N[C@@H](CC(=O)O)C(=O)N[C@@H](C(C)C)C(=O)N(C)[C@@H](Cc2ccccc2)C(=O)N[C@@H](Cc2ccc(O)cc2)C(=O)N(C)CC(=O)N[C@@H](CCC(=O)O)C(=O)N[C@@H](Cc2ccc(O)cc2)C(=O)N[C@@H](CC(C)C)C(=O)N[C@H](C(=O)NCC(N)=O)CSCC(=O)N[C@@H](Cc2ccccc2)C(=O)N(C)[C@@H](Cc2ccccc2)C(=O)N1C [Example 3072] (HELM PEPTIDE1{[O=C(C[*:3])[*:2]].F.[meF].[CCCC[C@@H](C(=O)[*:2])N(C)[*:1]].[Sar].D.V.[meF].Y.[Sar].E.Y.L.C.G.[am]}$PEPTIDE1,PEPTIDE1,1:R3-14:R3$$$V2.0)	> 30.5	> 74.3		
CCCC[C@H]1C(=O)N(C)CC(=O)N[C@@H](CC(=O)O)C(=O)N[C@@H](C(C)C)C(=O)N(C)[C@@H](Cc2ccccc2)C(=O)N[C@@H](CCC(=O)O)C(=O)N(C)[C@@H](CCC(=O)O)C(=O)N[C@@H](Cc2c[nH]c3ccccc23)C(=O)N[C@@H](Cc2ccc(O)cc2)C(=O)N[C@@H](CCC(=O)O)C(=O)N[C@H](C(=O)NCC(N)=O)CSCC(=O)N[C@@H](Cc2ccccc2)C(=O)N(C)[C@@H](Cc2ccccc2)C(=O)N1C [Example 3075] (HELM PEPTIDE1{[O=C(C[*:3])[*:2]].F.[meF].[CCCC[C@@H](C(=O)[*:2])N(C)[*:1]].[Sar].D.V.[meF].E.[meE].W.Y.E.C.G.[am]}$PEPTIDE1,PEPTIDE1,1:R3-14:R3$$$V2.0)	> 30.5	> 74.3		
CCCC[C@H]1C(=O)N(C)CC(=O)N[C@@H](CC(=O)O)C(=O)N[C@@H](C(C)C)C(=O)N(C)[C@@H](Cc2ccccc2)C(=O)N[C@@H](Cc2ccc(F)cc2)C(=O)N(C)CC(=O)N[C@@H](Cc2c[nH]c3ccccc23)C(=O)N[C@@H](Cc2ccc(O)cc2)C(=O)N[C@@H](CC(C)C)C(=O)N[C@H](C(=O)NCC(N)=O)CSCC(=O)N[C@@H](Cc2ccccc2)C(=O)N(C)[C@@H](Cc2ccccc2)C(=O)N1C [Example 3077] ({CH2CO}-F[NMeF][NMeNle][Sar]DV[NMeF][Phe(4-F)][Sar]WYLCG-NH2; thioether N-13)	> 30.5	> 74.3		
CCCC[C@H]1C(=O)N(C)CC(=O)N[C@@H](CC(=O)O)C(=O)N[C@@H](C(C)C)C(=O)N(C)[C@@H](Cc2ccccc2)C(=O)N[C@@H](Cc2ccc(O)cc2)C(=O)N(C)CC(=O)N[C@@H](Cc2c[nH]c3ccccc23)C(=O)N[C@@H](Cc2ccc(O)cc2)C(=O)N[C@@H](CC(C)C)C(=O)N[C@H](C(=O)NCC(N)=O)CSCC(=O)N[C@@H](Cc2c(F)c(F)c(F)c(F)c2F)C(=O)N(C)[C@@H](Cc2ccccc2)C(=O)N1C [Example 3078] ({CH2CO}-[Phe(F5)][NMeF][NMeNle][Sar]DV[NMeF]Y[Sar]WYLCG-NH2; thioether N-13)	> 30.5	> 74.3		
CCCC[C@H]1C(=O)N(C)CC(=O)N[C@@H](CC(=O)O)C(=O)N[C@@H](C(C)C)C(=O)N(C)[C@@H](Cc2ccccc2)C(=O)N[C@@H](Cc2c(F)c(F)c(F)c(F)c2F)C(=O)N(C)CC(=O)N[C@@H](Cc2c[nH]c3ccccc23)C(=O)N[C@@H](Cc2ccc(O)cc2)C(=O)N[C@@H](CC(C)C)C(=O)N[C@H](C(=O)NCC(N)=O)CSCC(=O)N[C@@H](Cc2ccccc2)C(=O)N(C)[C@@H](Cc2ccccc2)C(=O)N1C [Example 3079] ({CH2CO}-F[NMeF][NMeNle][Sar]DV[NMeF][Phe(F5)][Sar]WYLCG-NH2; thioether N-13)	> 30.5	4.78 to 72.9		

Further lines, with some results ahead:

IC50 (Human PD-L1/PD-1; read-out: HTRF IC50 cluster) [nM]	IC50 ([1]; read-out: CBA IC50 cluster) [nM]	Compound	IC50 (Human PD-L1/PD-1; HTRF IC50 cluster) [nM]	IC50 ([1]; CBA IC50 cluster) [nM]
0.385 to 6.74	0.158 to 4.71	CCCC[C@H]1C(=O)N(C)CC(=O)N[C@@H](CC(=O)O)C(=O)N[C@@H](C(C)C)C(=O)N(C)[C@@H](Cc2ccccc2)C(=O)N[C@@H](Cc2ccc(O)cc2)C(=O)N(C)CC(=O)N[C@@H](Cc2c[nH]c3ccccc23)C(=O)N[C@@H](Cc2ccc(O)cc2)C(=O)N[C@@H](CC(C)C)C(=O)N[C@H](C(=O)NCC(N)=O)CSCC(=O)N[C@@H](Cc2ccc(Cl)cc2)C(=O)N(C)[C@@H](Cc2ccccc2)C(=O)N1C [Example 3067] ({CH2CO}-[Phe(4-Cl)][NMeF][NMeNle][Sar]DV[NMeF]Y[Sar]WYLCG-NH2; thioether N-13)		
> 30.5	> 74.3	CCCC[C@H]1C(=O)N2CCC[C@H]2C(=O)N[C@@H](CC(=O)O)C(=O)N[C@@H](C(C)C)C(=O)N(C)[C@@H](Cc2ccccc2)C(=O)N[C@@H](Cc2ccc(O)cc2)C(=O)N(C)CC(=O)N[C@@H](Cc2c[nH]c3ccccc23)C(=O)N[C@@H](Cc2ccc(O)cc2)C(=O)N[C@@H](CC(C)C)C(=O)N[C@H](C(=O)NCC(N)=O)CSCC(=O)N[C@@H](Cc2ccccc2)C(=O)N(C)[C@@H](Cc2ccccc2)C(=O)N1C [Example 3068] (HELM PEPTIDE1{[O=C(C[*:3])[*:2]].F.[meF].[CCCC[C@@H](C(=O)[*:2])N(C)[*:1]].P.D.V.[meF].Y.[Sar].W.Y.L.C.G.[am]}$PEPTIDE1,PEPTIDE1,1:R3-14:R3$$$V2.0)		
> 30.5	> 74.3	CCCC[C@H]1C(=O)N(C)CC(=O)N[C@@H](CC(=O)O)C(=O)N[C@@H](C(C)C)C(=O)N(C)[C@@H](Cc2ccccc2)C(=O)N[C@@H](Cc2ccc(O)cc2)C(=O)N2CCC[C@H]2C(=O)N[C@@H](Cc2c[nH]c3ccccc23)C(=O)N[C@@H](Cc2ccc(O)cc2)C(=O)N[C@@H](CC(C)C)C(=O)N[C@H](C(=O)NCC(N)=O)CSCC(=O)N[C@@H](Cc2ccccc2)C(=O)N(C)[C@@H](Cc2ccccc2)C(=O)N1C [Example 3069] (HELM PEPTIDE1{[O=C(C[*:3])[*:2]].F.[meF].[CCCC[C@@H](C(=O)[*:2])N(C)[*:1]].[Sar].D.V.[meF].Y.P.W.Y.L.C.G.[am]}$PEPTIDE1,PEPTIDE1,1:R3-14:R3$$$V2.0)		
> 30.5	> 74.3	CCCC[C@H]1C(=O)N2CCC[C@H]2C(=O)N[C@@H](CC(=O)O)C(=O)N[C@@H](C(C)C)C(=O)N(C)[C@@H](Cc2ccccc2)C(=O)N[C@@H](Cc2ccc(O)cc2)C(=O)N2CCC[C@H]2C(=O)N[C@@H](Cc2c[nH]c3ccccc23)C(=O)N[C@@H](Cc2ccc(O)cc2)C(=O)N[C@@H](CC(C)C)C(=O)N[C@H](C(=O)NCC(N)=O)CSCC(=O)N[C@@H](Cc2ccccc2)C(=O)N(C)[C@@H](Cc2ccccc2)C(=O)N1C [Example 3070] (HELM PEPTIDE1{[O=C(C[*:3])[*:2]].F.[meF].[CCCC[C@@H](C(=O)[*:2])N(C)[*:1]].P.D.V.[meF].Y.P.W.Y.L.C.G.[am]}$PEPTIDE1,PEPTIDE1,1:R3-14:R3$$$V2.0)		
6.76 to 30.3	4.78 to 72.9	CCCC[C@H]1C(=O)N(C)CC(=O)N[C@@H](CC(=O)O)C(=O)N[C@@H](C(C)C)C(=O)N(C)[C@@H](Cc2ccccc2)C(=O)N[C@@H](Cc2ccc(O)cc2)C(=O)N(C)CC(=O)N[C@@H](Cc2cccc3[nH]ccc23)C(=O)N[C@@H](Cc2ccc(O)cc2)C(=O)N[C@@H](CC(C)C)C(=O)N[C@H](C(=O)NCC(N)=O)CSCC(=O)N[C@@H](Cc2ccccc2)C(=O)N(C)[C@@H](Cc2ccccc2)C(=O)N1C [Example 3071] ({CH2CO}-F[NMeF][NMeNle][Sar]DV[NMeF]Y[Sar][Ala(indol-4-yl)]YLCG-NH2; thioether N-13)		
0.385 to 6.74	4.78 to 72.9	CCCC[C@H]1C(=O)N(C)CC(=O)N[C@@H](CC(=O)O)C(=O)N[C@@H](C(C)C)C(=O)N(C)[C@@H](Cc2ccccc2)C(=O)N[C@@H](Cc2ccc(O)cc2)C(=O)N(C)[C@@H](CCC(=O)O)C(=O)N[C@@H](Cc2csc3ccccc23)C(=O)N[C@@H](Cc2ccc(O)cc2)C(=O)N[C@@H](CC(C)C)C(=O)N[C@H](C(=O)NCC(N)=O)CSCC(=O)N[C@@H](Cc2ccccc2)C(=O)N(C)[C@@H](Cc2ccccc2)C(=O)N1C [Example 3073] ({CH2CO}-F[NMeF][NMeNle][Sar]DV[NMeF]Y[NMeE][Bta]YLCG-NH2; thioether N-13)		
6.76 to 30.3	4.78 to 72.9	CCCC[C@H]1C(=O)N(C)CC(=O)N[C@@H](CC(=O)O)C(=O)N[C@@H](C(C)C)C(=O)N(C)[C@@H](Cc2ccccc2)C(=O)N[C@@H](Cc2ccc(O)cc2)C(=O)N(C)CC(=O)N[C@@H](Cc2csc3ccccc23)C(=O)N[C@@H](Cc2ccc(O)cc2)C(=O)N[C@@H](CCC(=O)O)C(=O)N[C@H](C(=O)NCC(N)=O)CSCC(=O)N[C@@H](Cc2ccccc2)C(=O)N(C)[C@@H](Cc2ccccc2)C(=O)N1C [Example 3074] ({CH2CO}-F[NMeF][NMeNle][Sar]DV[NMeF]Y[Sar][Bta]YECG-NH2; thioether N-13)		
0.385 to 6.74	4.78 to 72.9	CCCC[C@H]1C(=O)N(C)CC(=O)N[C@@H](CC(=O)O)C(=O)N[C@@H](C(C)C)C(=O)N(C)[C@@H](Cc2ccccc2)C(=O)N[C@@H](Cc2ccc(O)cc2)C(=O)N(C)CC(=O)N[C@@H](Cc2c[nH]c3ccccc23)C(=O)N[C@@H](Cc2ccc(F)cc2)C(=O)N[C@@H](CC(C)C)C(=O)N[C@H](C(=O)NCC(N)=O)CSCC(=O)N[C@@H](Cc2ccccc2)C(=O)N(C)[C@@H](Cc2ccccc2)C(=O)N1C [Example 3076] ({CH2CO}-F[NMeF][NMeNle][Sar]DV[NMeF]Y[Sar]W[Phe(4-F)]LCG-NH2; thioether N-13)		
